According to ChEMBL document CHEMBL1201862, “PubChem BioAssay data set” (2004):
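Dose response: 5 concentrations. Exposure: 48 h. Format: 96-well plates. Endpoint: linear interpolation; highest concentration if not reached. Abbreviation: GI50, concentration required for 50% inhibition of growth.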 The source made the active and inactive calls. No stated cut-off is given here; in the data, active = GI50 up to about 1.1 µM and inactive = higher. Where a SMILES comes first, the peptide text is derived from it. [ ]: non-standard residue; d: D form. Hiv = CC(C)[C@H](O)C(=O)O

Columns and labels:
Test in all cases: growth of human tumour cells (NCI), 48 h
[1] = system: OVCAR-4
[2] = system: T47D
[3] = system: OVCAR-5
[4] = system: MDA-MB-435
[5] = system: NCI-H226
[6] = system: SK-MEL-28
[7] = system: A498
[8] = system: HCT-116
[9] = system: OVCAR-3
[10] = system: HCC 2998
[11] = system: PC-3
[12] = system: SN12C
[13] = system: Hs-578T
[14] = system: SF-295
[15] = system: COLO 205
[16] = system: RPMI-8226
[17] = system: MDA-N
[18] = system: HOP-62
[19] = system: OVCAR-8
[20] = system: IGROV-1

Measured: GI50

CN(C)/C=N/S(=O)(=O)c1nn2c(C=O)c(-c3ccccc3)nc2s1
inactive: [1] 22.7 µM | [2] 15.7 µM | [3] 47.1 µM | [4] 12.4 µM | [5] 21.4 µM | [6] 9.2 µM | [7] 67.6 µM | [8] 3.26 µM | [9] 8.32 µM | [10] 36.1 µM | [11] 14.1 µM | [12] 13.5 µM | [13] 19.5 µM | [14] 52.8 µM | [15] 4.53 µM | [16] 3.43 µM | [17] 10.2 µM | [18] 47.2 µM | [19] 8.41 µM

CC(=O)C(C(=O)c1ccc(C)cc1)[C@H]1OC(C)(C)O[C@H]1[C@H]1COC(C)(C)O1 (stereo partly drawn)
inactive: [1] 2.53 µM | [2] 6.53 µM | [3] 8.39 µM | [4] 2.24 µM | [5] 14.5 µM | [6] 6.18 µM | [20] 3.17 µM | [7] 7.55 µM | [8] 2.25 µM | [10] 7.24 µM | [11] 2.55 µM | [12] 1.9 µM | [13] 3.08 µM | [14] 7.78 µM | [15] 10.3 µM | [16] 1.6 µM | [17] 1.85 µM | [18] 6.12 µM | [19] 1.9 µM

CC(=O)Oc1ccc2oc(=O)cc(C)c2c1
inactive: [1] > 100 µM | [2] > 100 µM | [4] > 100 µM | [5] > 100 µM | [6] > 100 µM | [20] > 100 µM | [7] > 100 µM | [8] > 100 µM | [9] > 100 µM | [10] > 100 µM | [11] > 10 µM | [12] > 100 µM | [13] > 100 µM | [14] > 100 µM | [15] > 100 µM | [16] > 100 µM | [17] > 100 µM | [18] > 100 µM | [19] > 100 µM

O=c1c(Cc2ccc(Cl)cc2)nnc2sc(-c3ccc(-c4ccc(F)c(Cl)c4)o3)nn12
inactive: [1] 42.1 µM | [2] 80.2 µM | [3] 56.1 µM | [4] 82 µM | [5] > 100 µM | [6] > 100 µM | [20] 72.3 µM | [7] 42.2 µM | [8] 29.7 µM | [10] > 100 µM | [11] 57.1 µM | [12] 42.7 µM | [13] > 100 µM | [14] 88.9 µM | [15] 57.3 µM | [16] > 100 µM | [17] 95.3 µM | [18] > 100 µM | [19] 58.7 µM

O=C(CSc1nc2ccccc2s1)c1sc2sc3ccccc3[n+]2c1[O-]
inactive: [1] > 100 µM | [2] > 100 µM | [3] > 100 µM | [4] > 100 µM | [5] > 100 µM | [6] > 100 µM | [20] > 100 µM | [7] > 100 µM | [8] > 100 µM | [9] > 100 µM | [11] > 100 µM | [12] > 100 µM | [13] > 100 µM | [14] > 100 µM | [15] > 100 µM | [16] > 100 µM | [17] > 100 µM | [18] > 100 µM | [19] > 100 µM

CC(=O)Oc1ccc(/C=C/C(=O)O[C@@H](C(=O)O)[C@@H](OC(=O)/C=C/c2ccc(OC(C)=O)c(OC(C)=O)c2)C(=O)O)cc1OC(C)=O
inactive: [1] > 100 µM | [2] > 100 µM | [3] > 100 µM | [4] > 100 µM | [6] > 100 µM | [20] > 100 µM | [7] > 100 µM | [8] > 100 µM | [9] > 100 µM | [10] > 100 µM | [11] > 100 µM | [12] > 100 µM | [13] > 100 µM | [14] > 100 µM | [15] > 100 µM | [16] > 100 µM | [17] > 100 µM | [18] > 100 µM | [19] > 100 µM

CC(C)[C@@H]1OC(=O)[C@@H](C)NC(=O)[C@@H]2CCCN2C1=O (cyclo([Hiv]-Pro-[dA]))
inactive: [1] > 100 µM | [2] > 100 µM | [3] > 100 µM | [4] > 100 µM | [5] > 100 µM | [6] > 100 µM | [20] > 100 µM | [7] > 100 µM | [8] > 100 µM | [9] > 100 µM | [10] > 100 µM | [11] > 100 µM | [12] > 100 µM | [13] > 100 µM | [14] > 100 µM | [15] > 100 µM | [17] > 100 µM | [18] > 100 µM | [19] > 100 µM
